Source: paper PMC10644722, “Discovery of inhibitors of protein tyrosine phosphatase 1B contained in a natural products library from Mexican medicinal plants and fungi using a combination of enzymatic and in silico methods**” (Frontiers in Pharmacology, 2023)
Values joined by “and” are separate entries in the source; they are usually repeats but may differ in a detail not shown here. Equal values may be shown once. Read-outs that look alike come from different tables or passages of the source.

Target: T1, hPTP1B1-400 (Homo sapiens, UniProt P18031)
T1 sequence (P18031 1-400): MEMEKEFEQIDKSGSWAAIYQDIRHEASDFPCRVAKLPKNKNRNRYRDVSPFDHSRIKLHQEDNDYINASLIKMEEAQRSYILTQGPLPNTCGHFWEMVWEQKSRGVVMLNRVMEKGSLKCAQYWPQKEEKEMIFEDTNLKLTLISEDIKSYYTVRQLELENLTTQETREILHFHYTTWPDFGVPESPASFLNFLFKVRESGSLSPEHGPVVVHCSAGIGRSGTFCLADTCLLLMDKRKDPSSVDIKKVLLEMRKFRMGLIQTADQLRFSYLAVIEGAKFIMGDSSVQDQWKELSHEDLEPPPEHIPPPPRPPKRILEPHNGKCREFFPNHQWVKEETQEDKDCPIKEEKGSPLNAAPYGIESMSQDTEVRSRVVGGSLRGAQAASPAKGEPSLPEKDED
Experiment: PTP1B inhibition assay (spectrophotometric, 4-nitrophenyl phosphate)
Assay type: biochemical
Conditions: for ΔA, activity difference between UA and the compound: absolute pIC50 difference against ursolic acid
Experimental: The inhibitory activity was determined as a percentage compared to the blank (Buffer) according to the following equation: %InhibitionPTP1B=1−A405s/A405b×100%, (1) where A405(s) is the ΔA of the sample (At20 − At0), A405(b) is the ΔA of the blank obtained in the same manner as that of the sample. Using the data obtained, the enzyme inhibition curve was plotted, for which the average percentage of inhibition was plotted as a function of the inhibitor concentration.

[1] = Hill1 model fit, Origin 8.0, axis C (mM), read-out: k of the IC50 curve
[2] = enzyme 66 nM, 4-NP 0.125 mM, Tris-HCl pH 6.8, 20 min, room temperature, read-out: IC50
[3] = negative log of the IC50 in Molar
[4] = DoseResp model fit, Origin 8.0, axis C (mM), read-out: LOGx0 of the IC50 curve
[5] = negative log of the IC50 in Molar, read-out: pIC50 (converted)

Compound | IC50 [1] [mM] | ΔA, activity difference between UA and the compound | IC50 [2] [mM] | pIC50 [3] | IC50 [4] [mM] | %I (0.02 mM compound) [%] | %I (1 mM compound) [%] | IC50 (IC50 (μM), enzyme 66 nM, 4-NP 0.125 mM, Tris-HCl pH 6.8, 20 min, room temperature) [mM] | IC50 (LOGx0 of the IC50 curve, DoseResp model fit, Origin 8.0, axis C (mM)) [mM] | IC50 (pIC50, negative log of the IC50 in Molar) [mM] | IC50 [5] [mM]
4-Hydroxy-3,3',5-trimetoxybibencyl [Compound 77] | 0.221 ± 0.147 | 1.0 | 0.221 ± 0.0001 | 3.66 |  |  |  |  |  |  | 
5,7-Diacetylchrysin [Compound 54] | 0.362 ± 0.0378 | 1.2 | 0.3618 ± 4e-05 | 3.44 |  |  |  |  |  |  | 
7-Methylluteolin [Compound 50] |  | 1.3 | 0.4349 ± 8e-06 | 3.36 | 0.435 ± 0.00856 |  |  |  |  |  | 
COc1cc(OC2OC(CO)C(O)C(O)C2O)c2c(-c3ccc(O)c(O)c3)cc(=O)oc2c1 [Compound 2, 5-O-(β-D-Glucopyranosyl)-7-methoxy-3'-4'-dihydroxy-4-phenylcoumarin] |  | 0.3 |  |  |  | 42.48 ± 1.16 | 95.13 ± 0.54 | 0.0404 ± 2e-05 | 0.0404 ± 0.0232 | 0.0407 | 
CC(=CCCC(C)C1CCC2(C)C3=CCC4C(C)(C)C(=O)CCC4(C)C3CCC12C)C(=O)O (stereo not drawn) [Compound 4, Masticadienonic acid] |  | 0.4 | 0.0491 ± 4e-06 |  | 0.0491 ± 0.00475 |  |  |  |  |  | 0.049
COc1cc(-c2cc(=O)c3c(O)c(O)c(OC)cc3o2)ccc1O [Compound 5, 4',5,6-Trihydroxy-3',7-dimethoxyflavone] |  | 0.42 and 0.4 | 0.0573 ± 2e-05 |  | 0.0573 ± 0.0213 |  |  |  |  |  | 0.0575
C=C(C)[C@H]1COc2c(C)cc3oc4c(C[C@H](O)C(C)(C)O)ccc(O)c4c(=O)c3c2[C@@H]1O [Compound 7, Tajixanthone hydrate] |  | 0.6 | 0.0832 ± 1e-06 |  | 0.0832 ± 0.00124 |  |  |  |  |  | 0.0832
O=C(OCC1OC(Oc2c(-c3ccc(O)c(O)c3)oc3cc(O)cc(O)c3c2=O)C(O)C(O)C1O)c1ccccc1 [Compound 8, Quercetin-3-O-(6''-benzoyl)-β-D-galactoside] |  | 0.6 | 0.0888 ± 5e-05 |  | 0.0888 ± 0.0504 |  |  |  |  |  | 0.0891
COc1cc(C)c2c(=O)c3c(O)cc(OC)cc3oc2c1 [Compound 9, Lichexanthone] |  | 0.6 | 0.0888 ± 5e-06 |  | 0.0888 ± 0.00531 |  |  |  |  |  | 0.0891
CC(C)(O)C(O)C1CC(C2CCC3(C)C4=CCC5C(C)(C)C(=O)CCC5(C)C4CCC23C)C(O)O1 (stereo not drawn) [Compound 10, Melianodiol] |  | 0.6 | 0.0921 ± 4e-05 |  |  |  |  |  |  |  | 0.0912
CC(C)(O)CCC(=O)[C@](C)(O)[C@H]1[C@H](O)C[C@@]2(C)[C@@H]3CC=C4[C@@H](C[C@H](O)[C@@H](O[C@@H]5O[C@H](CO)[C@@H](O)[C@H](O)[C@H]5O)C4(C)C)[C@]3(C)C(=O)C[C@]12C [Compound 14, 3-O-β-D-Glucopyranosyl-23,24-dihydrocucurbitacin F] |  | 1.2 | 0.3583 ± 1.2e-05 | 3.45 | 0.358 ± 0.0127 |  |  |  |  |  | 
CC(=O)OC(C)(C)/C=C/C(=O)[C@](C)(O)[C@H]1[C@H](O)C[C@@]2(C)[C@@H]3CC=C4[C@@H](C[C@H](O[C@@H]5O[C@H](CO)[C@@H](O)[C@H](O)[C@H]5O)C(=O)C4(C)C)[C@]3(C)C(=O)C[C@]12C [Compound 15, Arvenin I] | 0.564 ± 0.041 | 1.4 | 0.5643 ± 4.1e-05 | 3.25 |  |  |  |  |  |  | 
CC(=O)OC[C@H]1O[C@@H](Oc2cc(O)cc3oc(=O)cc(-c4ccc(O)cc4)c23)[C@H](O)[C@@H](O)[C@H]1O [Compound 18, 6''-O-Acetyl-5-O-β-D-galactopyranosyl-7,4'-dihydroxy-4-phenylcoumarin] | 0.349 ± 0.0341 | 1.2 | 0.3486 ± 3e-05 | 3.46 |  |  |  |  |  |  | 
Oc1cccc(CCc2ccc3c(c2)OCO3)c1 [Compound 25] |  | 1.5 | 0.6621 ± 0.00013 | 3.18 | 0.662 ± 0.134 |  |  |  |  |  | 
C=C1C(=O)O[C@@H]2C[C@@]3(C)CCC=C(C)[C@@H]3C[C@H]12 [Compound 32, Isoalloalantolactone] |  | 1.3 | 0.4432 ± 5e-05 | 3.35 | 0.443 ± 0.0513 |  |  |  |  |  | 
COc1cc(O)cc(CCc2cccc(O)c2)c1 [Compound 34, Batatasin III] |  | 1.1 | 0.2474 ± 7e-05 |  | 0.247 ± 0.0675 |  |  |  |  |  | 0.245
CN1C(=O)c2ccccc2-n2c(nc3ccccc3c2=O)[C@@H]1Cc1ccccc1 [Compound 40, Benzomalvin A] |  | 1.3 | 0.4242 ± 5e-06 |  | 0.424 ± 0.00536 |  |  |  |  |  | 0.427
COc1c(O)cc2cc(OC)c3cc(O)ccc3c2c1OC [Compound 41, Gymnopusin] |  | 1.3 | 0.4314 ± 1e-05 |  | 0.431 ± 0.0111 |  |  |  |  |  | 0.427
CCCCCCCCCCCCCCCCCCCCOC(=O)C=Cc1ccc(O)c(OC)c1 [Compound 43, Eicosyl 4-hydroxy-3-methoxy-cinnamate] |  | 1.5 | 0.6483 ± 0.00013 |  | 0.648 ± 0.131 |  |  |  |  |  | 0.646
COc1ccc([C@H]2OC[C@H]3[C@@H]2CO[C@@H]3c2ccc3c(c2OC)OCO3)cc1OC [Compound 47, 2'-Methoxykobusin] | 0.125 ± 0.00914 | 0.8 | 0.1253 ± 9e-06 | 3.90 |  |  |  |  |  |  | 
C/C(=C/CC[C@H](C)[C@@H]1CC[C@]2(C)C3=CC[C@H]4C(C)(C)[C@H](O)CC[C@]4(C)[C@H]3CC[C@@]12C)C(=O)O [Compound 49, 3α-Hydroxymasticadienonic acid] |  | 0.8 | 0.1507 ± 5e-06 | 3.82 | 0.151 ± 0.0053 |  |  |  |  |  | 
O=c1c(O[C@@H]2O[C@H](CO)[C@H](O)[C@H](O)[C@H]2O)c(-c2ccc(O)cc2)oc2cc(O)cc(O)c12 [Compound 51, Trifolin] |  | 1.6 | 0.859 ± 0.0003 |  | 0.859 ± 0.0259 |  |  |  |  |  | 0.851
O=C1C[C@@H](c2ccccc2)Oc2cc(O)cc(O)c21 [Compound 53, Pinocembrin] |  | 1.1 | 0.3062 ± 2e-05 |  | 0.306 ± 0.0184 |  |  |  |  |  | 0.309
C[C@H]1C(=O)CC[C@@H]2[C@]1(C)CC[C@H]1[C@@]2(C)CC[C@@]2(C)[C@@H]3CC(C)(C)CC[C@]3(C)CC[C@]12C [Compound 56, Friedelin] |  | 1.6 and 1.61 | 0.8878 ± 4e-05 |  | 0.888 ± 0.0408 |  |  |  |  |  | 0.891
COc1cc(=O)oc2c(O[C@@H]3O[C@H](CO)[C@@H](O)[C@H](O)[C@H]3O)ccc(C)c12 [Compound 63, 8-β-D-glucopyranosyloxy-4-methoxy-5-methyl-coumarin] |  | 0.9 | 0.1657 ± 2e-05 | 3.78 | 0.166 ± 0.0177 |  |  |  |  |  | 
C=C(C)C(C)(C)CCC(C)C1CCC2(C)C3CCC4C(C)(CCC(O)C4(C)C)C3=CCC12C (stereo not drawn) [Compound 64, 5α-lanosta-24,24-dimethyl-9(11),25-dien-3β-ol] |  | 1.3 | 0.3985 ± 3e-05 |  | 0.399 ± 0.025 |  |  |  |  |  | 0.398
